Key:
platelet ADP receptors = biological target: T1, platelet ADP receptors (Homo sapiens, UniProt Q9H244); test: ARB assay: inhibition of [3H]2-MeS-ADP binding to platelets; conditions: IC50 class, [3H]2-MeS-ADP binding to whole human platelets
T1 construct: endogenous in cells; host or cells: whole apyrase-washed human platelets (outdated from blood banks, or fresh)
Method: II. Inhibition of [^3H]2-MeS-ADP Binding to Platelets
Utilizing the second assay the potency of inhibition of such compounds with respect to [^3H]2-MeS-ADP binding to whole platelets is determined. [^3H]2-MeS-ADP binding experiments are routinely performed with outdated human platelets collected by standard procedures at hospital blood banks. Apyrase-washed outdated platelets are prepared as follows (all steps at room temperature, if not indicated otherwise):
Outdated platelet suspensions are diluted with 1 volume of CGS and platelets pelleted by centrifugation at 1900×g for 45 minutes. Platelet pellets are resuspended at 3-6×10^9 platelets/ml in CGS containing 1 U/ml apyrase (grade V, Sigma, St. Louis, Mo.) and incubated for 15 minutes at 37° C. After centrifugation at 730×g for 20 minutes, pellets are resuspended in Hepes-Tyrode's buffer containing 0.1% BSA (Sigma, St. Louis, Mo.) at a concentration of 6.66×10^8 platelets/ml. Binding experiments are performed after >45 minutes resting of the platelets.
Alternatively, binding experiments are performed with fresh human platelets prepared as described in I. (Inhibition of ADP-Mediated Platelet Aggregation in vitro), except that platelets are resuspended in Hepes-Tyrode's buffer containing 0.1% BSA (Sigma, St. Louis, Mo.) at a concentration of 6.66×10^8 platelets/ml. Very similar results are obtained with fresh and outdated platelets.
A platelet ADP receptor binding assay using the tritiated potent agonist ligand [^3H]2-MeS-ADP (Jantzen, H. M. et al. (1999) Thromb. Hemost. 81:111–117) has been adapted to the 96-well microtiter format. In an assay volume of 0.2 ml Hepes-Tyrode's buffer with 0.1% BSA and 0.6% DMSO, 1×10^8 apyrase-washed platelets are preincubated in 96-well flat bottom microtiter plates for 5 minutes with serial dilutions of test compounds before addition of 1 nM [^3H]2-MeS-ADP ([^3H]2-methylthioadenosine-5′-diphosphate, ammonium salt; specific activity 48–49 Ci/mmole, obtained by custom synthesis from Amersham Life Science, Inc., Arlington Heights, Ill., or NEN Life Science Products, Boston, Mass.). Total binding is determined in the absence of test compounds. Samples for nonspecific binding may contain 10^−5 M unlabelled 2-MeS-ADP (RBI, Natick, Mass.). After incubation for 15 minutes at room temperature, unbound radioligand is separated by rapid filtration and two washes with cold (4–8° C.) Binding Wash Buffer (10 mM Hepes pH 7.4, 138 mM NaCl) using a 96-well cell harvester (Minidisc 96, Skatron Instruments, Sterling, Va.) and 8×12 GF/C glassfiber filtermats (Printed Filtermat A, for 1450 Microbeta, Wallac Inc., Gaithersburg, Md.). The platelet-bound radioactivity on the filtermats is determined in a scintillation counter (Microbeta 1450, Wallac Inc., Gaithersburg, Md.). Specific binding is determined by […] binding, and specific binding in the presence of test compounds is expressed as % of specific binding in the absence of test compounds dilutions.

[1] = tested on: ADP-induced human platelet aggregation; test: PRP assay: inhibition of ADP-mediated platelet aggregation in vitro; assay type: cell-based; conditions: IC50 class
Method: I. Inhibition of ADP-Mediated Platelet Aggregation in vitro
The effect of testing the compound according to the invention on ADP-induced human platelet aggregation is preferably assessed in 96-well microtiter assay (see generally the procedures in Jantzen, H. M. et al. (1999) Thromb. Hemost. 81:111–117). Human venous blood is collected from healthy, drug-free volunteers into ACD (85 mM sodium citrate, 111 mM glucose, 71.4 mM citric acid) containing PGI2 (1.25 ml ACD containing 1.6 μM PGI2/10 ml blood; PGI2 was from Sigma, St. Louis, Mo.). Platelet-rich plasma (PRP) is prepared by centrifugation at 160×g for 20 minutes at room temperature. Washed platelets are prepared by centrifuging PRP for 10 minutes at 730×g and resuspending the platelet pellet in CGS (13 mM sodium citrate, 30 mM glucose, 120 mM NaCl; 2 ml CGS/10 ml original blood volume) containing 1 U/ml apyrase (grade V, Sigma, St. Louis, Mo.). After incubation at 37° C. for 15 minutes, the platelets are collected by centrifugation at 730×g for 10 minutes and resuspended at a concentration of 3×10^8 platelets/ml in Hepes-Tyrode's buffer (10 mM Hepes, 138 mM NaCl, 5.5 mM glucose, 2.9 mM KCl, 12 mM NaHCO3, pH 7.4) containing 0.1% bovine serum albumin, 1 mM CaCl2 and 1 mM MgCl2. This platelet suspension is kept >45 minutes at 37° C. before use in aggregation assays.
Inhibition of ADP-dependent aggregation is preferably determined in 96-well flat-bottom microtiter plates using a microtiter plate shaker and plate reader similar to the procedure described by Frantantoni et al., Am. J. Clin. Pathol. 94, 613 (1990). All steps are performed at room temperature. The total reaction volume of 0.2 ml/well includes in Hepes-Tyrodes buffer/0.1% BSA: 4.5×10^7 apyrase-washed platelets, 0.5 mg/ml human fibrinogen (American Diagnostica, Inc., Greenwich, Conn.), serial dilutions of test compounds (buffer for control wells) in 0.6% DMSO. After about 5 minutes preincubation at room temperature, ADP is added to a final concentration of 2 μM which induces submaximal aggregation. Buffer is added instead of ADP to one set of control wells (ADP^− control). The OD of the samples is then determined at 490 nm using a microtiter plate reader (Softmax, Molecular Devices, Menlo Park, Calif.) resulting in the 0 minute reading. The plates are then agitated for 5 min on a microtiter plate shaker and the 5 minute reading is obtained in the plate reader. Aggregation is calculated from the decrease of OD at 490 nm at t=5 minutes compared to t=0 minutes and is expressed as % of the decrease in the ADP control samples after correcting for changes in the unaggregated control samples.

T1 sequence (Q9H244 whole entry): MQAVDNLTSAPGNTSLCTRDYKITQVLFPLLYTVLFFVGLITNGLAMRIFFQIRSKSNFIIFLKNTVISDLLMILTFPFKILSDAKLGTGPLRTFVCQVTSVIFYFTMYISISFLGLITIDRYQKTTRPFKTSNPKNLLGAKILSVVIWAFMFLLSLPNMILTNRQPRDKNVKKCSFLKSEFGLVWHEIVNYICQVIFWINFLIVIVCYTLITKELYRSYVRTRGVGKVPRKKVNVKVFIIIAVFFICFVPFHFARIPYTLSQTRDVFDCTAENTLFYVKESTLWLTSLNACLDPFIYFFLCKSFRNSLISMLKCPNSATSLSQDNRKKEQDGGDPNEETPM

Compound	IC50 (platelet ADP receptors) [nM]	IC50 [1] [nM]
CNc1cc2c(cc1F)C(=O)N(c1ccc(NC(=O)NS(=O)(=O)c3ccc(Cl)s3)cc1)CO2 [Example 5, 1-(5-chlorothiophen-2-ylsulfonyl)-3-(4-(6-fluoro-7-(methylamino)-4-oxo-2H-benzo[e][1,3]oxazin-3(4H)-yl)phenyl)urea]	< 50	< 10000
CNc1cc2c(cc1F)C(=O)N(c1ccc(NC(=O)NS(=O)(=O)c3ccc(Cl)s3)c(C)c1)CO2 [Example 10, 1-(5-chlorothiophen-2-ylsulfonyl)-3-(4-(6-fluoro-7-(methylamino)-4-oxo-2H-benzo [e][1,3]oxazin-3(4H)-yl)-2-methylphenyl)urea]	50 to 500	10000 to 30000
CNc1cc2c(cc1F)C(=O)N(c1ccc(NC(=O)NS(=O)(=O)c3ccc(Cl)s3)cc1OC)CO2 [Example 15, 1-(5-chlorothiophen-2-ylsulfonyl)-3-(4-(6-fluoro-7-(methylamino)-4-oxo-2H-benzo [e][1,3]oxazin-3(4H)-yl)-3-methoxyphenyl)urea]	< 50	< 10000
CCOCCOc1cc(NC(=O)NS(=O)(=O)c2ccc(Cl)s2)ccc1N1COc2cc(NC)c(F)cc2C1=O [Example 20, 1-(5-chlorothiophen-2-ylsulfonyl)-3-(3-(2-ethoxyethoxy)-4-(6-fluoro-7-(methylamino)-4-oxo-2H-benzo[e][1,3]oxazin-3(4H)-yl)phenyl)urea]	> 500	–
CNc1cc2c(cc1F)C(=O)N(c1ccc(NC(=O)NS(=O)(=O)c3ccc(Cl)s3)cc1OCCN(C)C)CO2 [Example 25, 1-(5-chlorothiophen-2-ylsulfonyl)-3-(3-(2-(dimethylamino)ethoxy)-4-(6-fluoro-7-(methylamino)-4-oxo-2H-benzo[e][1,3]oxazin-3(4H)-yl)phenyl)urea]	> 500	–
CNc1cc2c(cc1F)C(=O)N(c1cc(C)c(NC(=O)NS(=O)(=O)c3ccc(Cl)s3)c(C)c1)CO2 [Example 26, (5-chlorothiophen-2-ylsulfonyl)-3-(4-(6-fluoro-7-(methylamino)-4-oxo-2H-benzo[e][1,3]oxazin-3(4H)-yl)-2,6-dimethylphenyl)urea]	< 50	< 10000
CNc1cc2c(cc1F)C(=O)N(c1ccc(NC(=O)NS(=O)(=O)c3ccc(Cl)s3)c(OC)c1)CO2 [Example 27, 1-(5-chlorothiophen-2-ylsulfonyl)-3-(4-(6-fluoro-7-(methylamino)-4-oxo-2H-benzo[e][1,3]oxazin-3(4H)-yl)-2-methoxyphenyl)urea]	< 50	> 30000
CNc1cc2c(cc1F)C(=O)N(c1ccc(NC(=O)NS(=O)(=O)c3ccc(Cl)s3)c(OCCOC)c1)CO2 [Example 28, 1-(5-chlorothiophene-2-ylsulfonyl)-3-(4-(6-fluoro-7-(methylamino)-4-oxo-2H-benzo[e][1,3]oxazin-3(4H)-yl)-2-(2-methoxyethoxy)phenyl)urea]	< 50	< 10000
CNc1cc2c(cc1F)C(=O)N(c1ccc(NC(=O)NS(=O)(=O)c3ccc(Cl)s3)c(OCCN(C)C)c1)CO2 [Example 34]	50 to 500	10000 to 30000
CNc1cc2c(cc1F)C(=O)N(c1ccc(NC(=O)NS(=O)(=O)c3ccc(Cl)s3)c(C(=O)N(C)C)c1)CO2 [Example 37, 1-(5-chlorothiophen-2-ylsulfonyl)-3-(2-(dimethylcarbamoyl)-4-(6-fluoro-7-(methylamino)-4-oxo-2H-benzo[e][1,3]oxazin-3(4H)-yl)phenyl)urea]	50 to 500	–
CNc1cc2c(cc1F)C(=O)N(c1ccc(NC(=O)NS(=O)(=O)c3ccc(Cl)s3)c(C(N)=O)c1)CO2 [Example 39, 1-(2-carbamoyl-4-(6-fluoro-7-(methylamino)-4-oxo-2H-benzo[e][1,3]oxazin-3(4H)-yl)phenyl)-3-(5-chlorothiophen-2-ylsulfonyl)urea]	< 50	< 10000
CNc1cc2c(cc1F)C(=O)N(c1ccc(NC(=O)NS(=O)(=O)c3ccc(Cl)s3)nc1)CO2 [Example 41, 1-(5-chlorothiophen-2-ylsulfonyl)-3-(5-(6-fluoro-7-(methylamino)-4-oxo-2H-benzo[e][1,3]oxazin-3(4H)-yl)pyridin-2-yl)urea]	< 50	< 10000
CNc1cc2c(cc1F)C(=O)N(c1cnc(NC(=O)NS(=O)(=O)c3ccc(Cl)s3)c(C)c1)CO2 [Example 42, 1-(5-chlorothiophen-2-ylsulfonyl)-3-(5-(6-fluoro-7-(methylamino)-4-oxo-2H-benzo [e][1,3]oxazin-3(4H)-yl)-3-methylpyridin-2-yl)urea]	< 50	< 10000
CNc1cc2c(cc1F)C(=O)N(c1ccc(NC(=O)NS(=O)(=O)c3ccc(C)s3)nc1)CO2 [Example 43]	< 50	< 10000
CNc1cc2c(cc1F)C(=O)N(c1ccc(NC(=O)NS(=O)(=O)c3ccc(OC)s3)nc1)CO2 [Example 44, 1-(5-(6-fluoro-7-(methylamino)-4-oxo-2H-benzo[e][1,3]oxazin-3(4H)-yl)pyridin-2-yl)-3-(5-methoxythiophen-2-ylsulfonyl)urea]	50 to 500	> 30000
CNc1cc2c(cc1F)C(=O)N(c1ccc(NC(=O)NS(=O)(=O)c3ccc(OC)s3)cc1)CO2 [Example 45]	< 50	> 30000
CNc1cc2c(cc1F)C(=O)N(c1ccc(NC(=O)NS(=O)(=O)c3ccc(C)s3)cc1)CO2 [Example 46, 1-(4-(6-fluoro-7-(methylamino)-4-oxo-2H-benzo[e][1,3]oxazin-3(4H)-yl)-3-5-methylthiophen-2ylsulfonyl)urea]	< 50	10000 to 30000
CNc1cc2c(cc1Cl)C(=O)N(c1ccc(NC(=O)NS(=O)(=O)c3ccc(Cl)s3)cc1)CO2 [Example 51, 1-(5-chlorothiophen-2-ylsulfonyl)-3-(4-(6-chloro-7-(methylamino)-4-oxo-2H-benzo[e][1,3]oxazin-3(4H)-yl)phenyl)urea]	< 50	> 30000
CNc1cc2c(cc1F)C(=O)N(c1ccc(C(=O)NS(=O)(=O)c3ccc(Cl)s3)cc1)CO2 [Example 56, N-(5-chlorothiophen-2-ylsulfonyl)-4-(6-fluoro-7-(methylamino) -4-oxo-2H-benzo[e] [1,3]oxazin-3(4H)-yl) benzamide]	< 50	< 10000
